From BindingDB's records for doi:10.1021/jm00002a012 (Merck Research Laboratories, 1995)

Target: Human immunodeficiency virus type 1 protease (Human immunodeficiency virus 1, UniProt Q72874)
Experiment: Inhibition of HIV-1 protease was determined in vitro

CC(C)(C)NC(=O)[C@@H]1C[C@@H]2CCCC[C@@H]2CN1C[C@@H](O)[C@H](Cc1ccccc1)NC(=O)[C@@H](NC(=O)c1ccc2ccccc2n1)[C@H]1CCOC1 [(3S,4aS,8aS)-N-tert-butyl-2-[(2R,3S)-2-hydroxy-3-[(2S)-2-[(3R)-oxolan-3-yl]-2-(quinolin-2-ylformamido)acetamido]-4-phenylbutyl]-decahydroisoquinoline-3-carboxamide]
IC50: 0.05 nM
